From ChEMBL document CHEMBL1201862, “PubChem BioAssay data set” (2004)
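Briefly, cells in 96-well plates were exposed to five compound concentrations for 48 h, and endpoints were estimated by linear interpolation. GI50 is the concentration that inhibits growth by half.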 Calls of active or inactive are those of the source. Cut-off read from the data, not from the text of the source: active = GI50 up to about 1.1 µM and inactive = higher.

Columns and labels:
Experiment in all cases: NCI anticancer screen, dose series, 48 h
MDA-MB-231 = test system: MDA-MB-231
MDA-MB-435 = test system: MDA-MB-435
EKVX = test system: EKVX
LOX IMVI = test system: LOX IMVI
SK-MEL-2 = test system: SK-MEL-2
MOLT-4 = test system: MOLT-4
NCI-H23 = test system: NCI-H23
HOP-92 = test system: HOP-92
PC-3 = test system: PC-3
NCI/ADR-RES = test system: NCI/ADR-RES
SNB-75 = test system: SNB-75
BT-549 = test system: BT-549
UO-31 = test system: UO-31
IGROV-1 = test system: IGROV-1
ACHN = test system: ACHN
CAKI-1 = test system: CAKI-1
NCI-H226 = test system: NCI-H226
UACC-62 = test system: UACC-62
MDA-N = test system: MDA-N
OVCAR-5 = test system: OVCAR-5
TK-10 = test system: TK-10
SF-539 = test system: SF-539
HT-29 = test system: HT-29
786-0 = test system: 786-0
RXF 393 = test system: RXF 393
SF-295 = test system: SF-295
U-251 = test system: U-251
K562 = test system: K562
NCI-H460 = test system: NCI-H460
UACC-257 = test system: UACC-257
HCT-15 = test system: HCT-15
SW-620 = test system: SW-620
HOP-62 = test system: HOP-62
Malme-3M = test system: Malme-3M
HCT-116 = test system: HCT-116
M14 = test system: M14
OVCAR-8 = test system: OVCAR-8
SN12C = test system: SN12C
SR = test system: SR
SK-MEL-28 = test system: SK-MEL-28
A498 = test system: A498
SK-MEL-5 = test system: SK-MEL-5
HL-60 = test system: HL-60
Hs-578T = test system: Hs-578T
OVCAR-3 = test system: OVCAR-3
A549 = test system: A549
OVCAR-4 = test system: OVCAR-4
KM12 = test system: KM12
SK-OV-3 = test system: SK-OV-3
SNB-19 = test system: SNB-19
COLO 205 = test system: COLO 205
MCF7 = test system: MCF7
CCRF-CEM = test system: CCRF-CEM
HCC 2998 = test system: HCC 2998
DU-145 = test system: DU-145
RPMI-8226 = test system: RPMI-8226
T47D = test system: T47D
NCI-H522 = test system: NCI-H522
SF-268 = test system: SF-268

## CC1CCC2C(C)(C)CC3(C)CCC1C23O (centres undefined)
MDA-MB-231
  GI50: 16.2 µM (inactive)
MDA-MB-435
  GI50: 15.6 µM (inactive)
EKVX
  GI50: 15.1 µM (inactive)
LOX IMVI
  GI50: 15.3 µM (inactive)
SK-MEL-2
  GI50: 14.1 µM (inactive)
MOLT-4
  GI50: 11.2 µM (inactive)
NCI-H23
  GI50: 16.1 µM (inactive)
HOP-92
  GI50: 13.3 µM (inactive)
PC-3
  GI50: 13 µM (inactive)
NCI/ADR-RES
  GI50: 14.6 µM (inactive)
SNB-75
  GI50: 18.8 µM (inactive)
BT-549
  GI50: 18.1 µM (inactive)
UO-31
  GI50: 16.4 µM (inactive)
IGROV-1
  GI50: 14.6 µM (inactive)
ACHN
  GI50: 16.1 µM (inactive)
CAKI-1
  GI50: 14.2 µM (inactive)
NCI-H226
  GI50: 15.3 µM (inactive)
UACC-62
  GI50: 14.9 µM (inactive)
MDA-N
  GI50: 12.7 µM (inactive)
OVCAR-5
  GI50: 18.9 µM (inactive)
TK-10
  GI50: 17.7 µM (inactive)
SF-539
  GI50: 17.8 µM (inactive)
HT-29
  GI50: 16.3 µM (inactive)
786-0
  GI50: 15.6 µM (inactive)
RXF 393
  GI50: 17 µM (inactive)
SF-295
  GI50: 12.7 µM (inactive)
U-251
  GI50: 16 µM (inactive)
K562
  GI50: 12.4 µM (inactive)
NCI-H460
  GI50: 17 µM (inactive)
UACC-257
  GI50: 16.2 µM (inactive)
HCT-15
  GI50: 16.9 µM
SW-620
  GI50: 16 µM (inactive)
HOP-62
  GI50: 16.4 µM (inactive)
Malme-3M
  GI50: 13.3 µM (inactive)
HCT-116
  GI50: 14.8 µM (inactive)
M14
  GI50: 16 µM (inactive)
OVCAR-8
  GI50: 17.2 µM (inactive)
SN12C
  GI50: 16.9 µM (inactive)
SR
  GI50: 12.3 µM (inactive)
SK-MEL-28
  GI50: 16.3 µM (inactive)
A498
  GI50: 18.5 µM (inactive)
SK-MEL-5
  GI50: 14.6 µM (inactive)
HL-60
  GI50: 1.63 µM (inactive)
Hs-578T
  GI50: 16.7 µM (inactive)
OVCAR-3
  GI50: 16.3 µM (inactive)
A549
  GI50: 16.3 µM (inactive)
OVCAR-4
  GI50: 22.1 µM (inactive)
KM12
  GI50: 15.5 µM (inactive)
SK-OV-3
  GI50: 29 µM (inactive)
SNB-19
  GI50: 29.1 µM (inactive)
COLO 205
  GI50: 18.3 µM (inactive)
MCF7
  GI50: 15.8 µM (inactive)
CCRF-CEM
  GI50: 4.02 µM (inactive)

## Cc1cc(C)nc(NC(=O)c2ccc(Br)s2)c1
MDA-MB-231
  GI50: 21.7 µM (inactive)
MDA-MB-435
  GI50: 79.1 µM (inactive)
EKVX
  GI50: 76.7 µM (inactive)
HCC 2998
  GI50: > 100 µM (inactive)
LOX IMVI
  GI50: 35.3 µM (inactive)
SK-MEL-2
  GI50: > 100 µM (inactive)
MOLT-4
  GI50: > 100 µM (inactive)
DU-145
  GI50: > 100 µM (inactive)
NCI-H23
  GI50: 77.6 µM (inactive)
HOP-92
  GI50: > 100 µM (inactive)
PC-3
  GI50: > 100 µM (inactive)
NCI/ADR-RES
  GI50: > 100 µM (inactive)
SNB-75
  GI50: 47.8 µM (inactive)
BT-549
  GI50: > 100 µM (inactive)
RPMI-8226
  GI50: 3.3 µM (inactive)
UO-31
  GI50: 25.6 µM (inactive)
IGROV-1
  GI50: > 100 µM (inactive)
ACHN
  GI50: > 100 µM (inactive)
CAKI-1
  GI50: > 100 µM (inactive)
NCI-H226
  GI50: > 100 µM (inactive)
UACC-62
  GI50: 95.3 µM (inactive)
MDA-N
  GI50: 31.8 µM (inactive)
OVCAR-5
  GI50: 17.7 µM (inactive)
TK-10
  GI50: > 100 µM (inactive)
T47D
  GI50: 31.9 µM (inactive)
SF-539
  GI50: 56.9 µM (inactive)
HT-29
  GI50: > 100 µM (inactive)
786-0
  GI50: > 100 µM (inactive)
RXF 393
  GI50: > 100 µM (inactive)
SF-295
  GI50: 20.5 µM (inactive)
U-251
  GI50: > 100 µM (inactive)
K562
  GI50: > 100 µM (inactive)
NCI-H522
  GI50: > 100 µM (inactive)
NCI-H460
  GI50: > 100 µM (inactive)
UACC-257
  GI50: > 100 µM (inactive)
HCT-15
  GI50: 94.8 µM
SW-620
  GI50: > 100 µM (inactive)
HOP-62
  GI50: > 100 µM (inactive)
Malme-3M
  GI50: > 100 µM (inactive)
HCT-116
  GI50: 10.7 µM (inactive)
M14
  GI50: 21.3 µM (inactive)
OVCAR-8
  GI50: > 100 µM (inactive)
SN12C
  GI50: > 100 µM (inactive)
SR
  GI50: > 100 µM (inactive)
SK-MEL-28
  GI50: > 100 µM (inactive)
A498
  GI50: 30.5 µM (inactive)
SK-MEL-5
  GI50: 5.13 µM (inactive)
SF-268
  GI50: > 100 µM (inactive)
OVCAR-3
  GI50: > 100 µM (inactive)
A549
  GI50: 48.4 µM (inactive)
OVCAR-4
  GI50: > 100 µM (inactive)
KM12
  GI50: > 100 µM (inactive)
SK-OV-3
  GI50: > 100 µM (inactive)
SNB-19
  GI50: > 100 µM (inactive)
COLO 205
  GI50: 10.6 µM (inactive)
MCF7
  GI50: 28 µM (inactive)
CCRF-CEM
  GI50: 3.37 µM (inactive)

## CC[C@@H](CCCC[C@@H]1CC[C@H]2CC(=O)C[C@@H]12)OC
MDA-MB-435
  GI50: > 100 µM (inactive)
HCC 2998
  GI50: > 100 µM (inactive)
LOX IMVI
  GI50: > 100 µM (inactive)
NCI-H23
  GI50: > 100 µM (inactive)
NCI/ADR-RES
  GI50: 99.5 µM (inactive)
SNB-75
  GI50: > 100 µM (inactive)
BT-549
  GI50: 66.7 µM (inactive)
RPMI-8226
  GI50: > 100 µM (inactive)
ACHN
  GI50: > 100 µM (inactive)
CAKI-1
  GI50: > 100 µM (inactive)
NCI-H226
  GI50: > 100 µM (inactive)
MDA-N
  GI50: > 100 µM (inactive)
OVCAR-5
  GI50: > 100 µM (inactive)
TK-10
  GI50: > 100 µM (inactive)
SF-539
  GI50: > 100 µM (inactive)
HT-29
  GI50: > 100 µM (inactive)
SF-295
  GI50: > 100 µM (inactive)
K562
  GI50: 30.8 µM (inactive)
NCI-H522
  GI50: > 100 µM (inactive)
UACC-257
  GI50: 69.5 µM (inactive)
HCT-15
  GI50: > 100 µM
SW-620
  GI50: > 100 µM (inactive)
HOP-62
  GI50: > 100 µM (inactive)
Malme-3M
  GI50: > 100 µM (inactive)
SN12C
  GI50: > 100 µM (inactive)
SR
  GI50: > 100 µM (inactive)
SK-MEL-28
  GI50: > 100 µM (inactive)
A498
  GI50: > 100 µM (inactive)
SK-MEL-5
  GI50: 85.1 µM (inactive)
SF-268
  GI50: > 100 µM (inactive)
HL-60
  GI50: 43.2 µM (inactive)
Hs-578T
  GI50: > 100 µM (inactive)
A549
  GI50: > 100 µM (inactive)
OVCAR-4
  GI50: > 100 µM (inactive)
